Assay results taken from patent US9273043B2, “TRPV1 antagonists including dihydroxy substituent and uses thereof” (Purdue Pharma L.P., priority 2011, dated 2016).
Converted amounts (≈) assume the structure as drawn. Like-named read-outs stand apart in the source and are kept apart here. Marks after values point to notes of the source that are not given here. Blank lines part the entries; values can stand above or below the compound they belong to.

Assays:
[1] = In vivo assay of body temperature increase (rectal body temperature); set-up: species or system rat; conditions: rats, oral, 10 mL/kg of 1 mg/mL in 0.5% methylcellulose; greatest ΔTb versus vehicle control at 0.5, 1 or 2 hrs
Excerpt: Hyperthermia or undesirable elevation in animal body temperature is known to be an undesirable side-effect accompanying the administration of certain TRPV1 antagonists (Gavva, “Body-temperature maintenance as the predominant function of the vanilloid receptor TRPV1,” Trends Pharmacol. Sci. 29(11):550-557 (2008)).
Test Animals: Selection of rats (Crl/SD rats, 7 weeks, male) was based on rectal body temperature measured during the morning of the day of dosing as described below. In addition, to minimize spontaneous, stress-induced increases in body temperature, rats were acclimated in advance to both the rectal measurement procedure and to being handled and dosed. All lodging and testing took place in animal care laboratories with constant room temperature and humidity. The rats were free to move and ingest food and water throughout. Each rat was coded with a colored line on the tail, housed in a separate cage, and permitted the normal range of movement. Immediately before each body temperature measurement, a rat was transferred to a measurement cage. To reduce stress which could influence its body temperature, each rat was covered with towels during the measurement. A thermistor probe was then carefully inserted into the rectum of each rat and left in place until the temperature reading on the digital display had stabilized; this value was recorded.
Assay: On the day before dosing, rectal body temperature was measured at 9:00, 10:00, 11:00, 12:30, 13:30, 14:30, and 15:30 o'clock to familiarize the rats with the measurement procedure prior to administration of the test or control treatments. The rats were also dosed by oral gavage without vehicle at 12:30 o'clock to acclimate and familiarize them with the handling and dosing procedure.
On the day of dosing, only rats with rectal body temperatures within the range of from 37.0° C. to 37.7° C. were selected for study. Rectal body temperatures were measured at 9:00, 10:00, and 11:00 o'clock. Rats were excluded from the study if either their rectal body temperature was over 37.9° C. at 10:00 o'clock or was outside the range of from 37.0° C. to 37.7° C. at 11:00 o'clock. The selected rats were divided into several groups based on their rectal body temperatures at 11:00 o'clock. Rectal body temperatures of the selected rats were measured again at 12:30 o'clock and any rat with a rectal body temperature of 38.0° C. or greater was also excluded from the study.
Following assignment to either a test or control group, a test compound or a control was administered to the rats. Each test compound was dissolved in a vehicle of 0.5% aqueous methylcellulose solution and the final concentration of the test compound was adjusted to 1 mg/mL. Each test compound was orally administered once at a dose of 10 mL/kg. The same volume of the control (vehicle only) was administered once to the control group. Rectal body temperatures were measured at the following time points: 0.5, 1, and 2 hrs after administration.
The body temperature increase (ΔTb) for each test compound was calculated by subtracting, at each time point, the average temperature of the control group from the average temperature of the group administered that test compound. The greatest ΔTb obtained for each test compound at any of the time points is shown in Table 11 below, along with the ΔTb of the control.

[2] = Aqueous solubility at pH 1.2 and pH 6.8; assay type: physicochemical; conditions: aqueous solution
[3] = system: FCA-induced inflammation of the rat hind paw; test: Freund's complete adjuvant (FCA) model of inflammatory pain, paw withdrawal threshold; assay type: in vivo; conditions: rat FCA, 20 mg/kg
Method: Test Animals: Each experiment uses rats weighing between 200-260 g at the start of the experiment. The rats are group-housed and have free access to food and water at all times, except prior to oral administration of a Compound of Formula (I) when food is removed for 16 hours before dosing. A control group acts as a comparison to rats treated with a Compound of Formula (I). The control group is administered the vehicle for the Compound of Formula (I). The volume of vehicle administered to the control group is the same as the volume of carrier and Compound of Formula (I) administered to the test group.
Inflammatory Pain: To assess the actions of a Compound of Formula (I) for the treatment or prevention of inflammatory pain, the Freund's complete adjuvant (“FCA”) model of inflammatory pain was used. FCA-induced inflammation of the rat hind paw is associated with the development of persistent inflammatory mechanical hyperalgesia and provides reliable prediction of the anti-hyperalgesic action of clinically useful analgesic drugs (Bartho et al., “Involvement of capsaicin-sensitive neurons in hyperalgesia and enhanced opioid antinociception in inflammation,” Naunyn-Schmiedeberg's Archives of Pharmacol. 342:666-670 (1990)). The right hind paw of each male, 6-week old Jcl:SD rat was administered a 50 μL intraplantar injection of 50% FCA (Sigma-Aldrich). 24 hour post-injection, the animal was assessed for response to noxious mechanical stimuli by determining the PWT, as described below. Rats were then administered a single injection of 0.1, 0.3, 1, 3, or 10 mg/kg of either the product prepared with Compound A155(a) and fumaric acid as described in Example 10, 20 mg/kg of an ibuprofen control (EMD Millipore Chemicals, Inc.), or vehicle as a control (0.5% weight/volume methylcellulose (400cP, Wako Pure Chemical Industries, Ltd., Osaka, Japan)/aqueous solution). […] Responses to noxious mechanical stimuli were then determined 1, 3, 5, and 7 hours post-administration. Percentage reversal of hyperalgesia for each animal was defined as: […]
With the exception of the controls (i.e., ibuprofen, vehicle) where the student's t-test was used, Dunnett's test was conducted for the % reversal. In either instance, values with p<0.05 were considered to be statistically significant. The % reversal results for administration of the product prepared with Compound A155(a) and fumaric acid as described in Example 10 and the respective controls are presented in Table 7.
Response to Mechanical Stimuli as an Assessment of Mechanical Hyperalgesia: The paw pressure assay was used to assess mechanical hyperalgesia. For this assay, hind paw withdrawal thresholds (PWT) to a noxious mechanical stimulus were determined using an analgesymeter (Model 37215, commercially available from Ugo Basile of Italy) as described in Stein, “Unilateral Inflammation of the Hindpaw in Rats as a Model of Prolonged Noxious Stimulation: Alterations in Behavior and Nociceptive Thresholds,” Pharmacol. Biochem. and Behavior 31:451-455 (1988). The maximum weight that could be applied to the hind paw was set at 250 g and the end point was taken as complete withdrawal of the paw. PWT was determined once for each rat at each time point and either only the affected (ipsilateral) paw was tested, or both the ipsilateral and contralateral (non-injured) paw were tested.

[4] = pH 1.2, read-out: aqueous solubility at pH 1.2
[5] = pH 6.8, read-out: aqueous solubility at pH 6.8

ΔTb, body temperature increase [1]: 0.8 °C
Structure (SMILES): C[C@H]1CN(c2ncc([C@H](O)CO)cc2Cl)CCN1C(=O)Nc1nc2ccc(F)cc2s1 [AA]

aqueous solubility at pH 6.8 ([2]; pH 6.8): insoluble
Structure (SMILES): O=C(Nc1ccc(C(F)(F)F)cc1)N1CC=C(c2ncccc2F)CC1 [Compound 208]

ΔTb, body temperature increase [1]: 0.7 °C
Structure (SMILES): C[C@H]1CN(c2ncc([C@H](O)CO)cc2F)CCN1C(=O)Nc1nc2ccc(F)cc2s1 [AC]

ΔTb, body temperature increase [1]: 0.9 °C
Structure (SMILES): Cc1ccc2nc(NC(=O)N3CCN(c4ncc([C@H](O)CO)cc4Cl)CC3)sc2c1 [DJ]

ΔTb, body temperature increase [1]: 1.0 °C
Structure (SMILES): C[C@@H]1CN(c2ncc([C@H](O)CO)cc2C(F)(F)F)CCN1C(=O)Nc1nc2ccccc2s1 [DC]

ΔTb, body temperature increase [1]: 0.7 °C
Structure (SMILES): C[C@H](O)[C@@H](O)c1cnc(N2CCN(C(=O)Nc3nc4ccc(F)cc4s3)[C@H](C)C2)c(F)c1 [BC]

solubility [2, 4]: 39.6 µM (≈ 15.8 µg/mL)
solubility [2, 5]: 0.8 µM (≈ 0.32 µg/mL)
Structure (SMILES): O=C(Nc1ccc(C(F)(F)F)c(F)c1)N1CC=C(c2ncccc2Cl)CC1 [Compound 213]

ΔTb, body temperature increase [1]: 1.2 °C
Structure (SMILES): COc1ccc2nc(NC(=O)N3CCN(c4ncc([C@H](O)CO)cc4Cl)CC3)sc2c1 [DP]

solubility [2, 4]: < 0.1 µM
Structure (SMILES): O=C(Nc1ccc(C(F)(F)F)cc1)N1CC=C(c2ncccc2Cl)CC1 [Compound 200]

aqueous solubility at pH 6.8 ([2]; pH 6.8): insoluble
Structure (SMILES): O=C(Nc1ccc(C(F)(F)F)cc1)N1CCC(F)(c2ncccc2F)CC1 [Compound 207]

ΔTb, body temperature increase [1]: 0.6 °C
Structure (SMILES): C[C@H]1CN(c2ncc([C@H](O)CO)cc2F)CCN1C(=O)Nc1nc2ccc(Cl)cc2s1 [AB]

ΔTb, body temperature increase [1]: 0.9 °C
Structure (SMILES): Cc1cc2nc(NC(=O)N3CCN(c4ncc([C@H](O)CO)cc4C)CC3)sc2cc1C [DM]

ΔTb, body temperature increase [1]: 0.5 °C
Structure (SMILES): O=C(Nc1nc2ccc(F)cc2s1)N1CCN(c2ncc([C@H](O)CO)cc2F)CC1 [DF]

solubility [2, 4]: 9.3 µM (≈ 3.9 µg/mL)
solubility [2, 5]: 1.0 µM (≈ 0.42 µg/mL)
Structure (SMILES): O=C(Nc1ccc(C(F)(F)F)c(F)c1)N1CCC(F)(c2ncccc2Cl)CC1 [Compound 209]

ΔTb, body temperature increase [1]: 1.1 °C
Structure (SMILES): COc1ccc2nc(NC(=O)N3CCN(c4ncc([C@H](O)CO)cc4F)C[C@H]3C)sc2c1 [DO]

ΔTb, body temperature increase [1]: 0.8 °C
Structure (SMILES): C[C@@H]1CN(c2ncc([C@H](O)CO)cc2C(F)(F)F)CCN1C(=O)Nc1nc2ccc(F)cc2s1 [DI]

ΔTb, body temperature increase [1]: 0.7 °C
Structure (SMILES): C[C@@H]1CN(c2ncc([C@H](O)CO)cc2F)CCN1C(=O)Nc1nc2cc(F)ccc2s1 [DK]

aqueous solubility at pH 6.8 ([2]; pH 6.8): insoluble
Structure (SMILES): O=C(Nc1ccc(C(F)(F)F)cc1)N1CCC(F)(c2ncccc2Cl)CC1 [Compound 203]

ΔTb, body temperature increase [1]: 1.0 °C
Structure (SMILES): O=C(Nc1nc2ccc(F)cc2s1)N1CCN(c2ncc([C@H](O)CO)cc2Cl)CC1 [DD]

ΔTb, body temperature increase [1]: 1.3 °C
Structure (SMILES): C[C@@H]1CN(c2ncc([C@H](O)CO)cc2Cl)CCN1C(=O)Nc1nc2ccc(F)cc2s1 [DE]

ΔTb, body temperature increase [1]: 0.9 °C
Structure (SMILES): Cc1cc2nc(NC(=O)N3CCN(c4ncc([C@H](O)CO)cc4F)C[C@H]3C)sc2cc1C [DL]

ΔTb, body temperature increase [1]: 1.1 °C
Structure (SMILES): C[C@@H]1CN(c2ncc([C@H](O)CO)cc2F)CCN1C(=O)Nc1nc2ccccc2s1 [DB]

Structure (SMILES): CC(C)Cc1ccc(C(C)C(=O)O)cc1 (stereo not drawn) [Ibuprofen, ibuprofen, reference compound]
% Reversal [mean] ([3]; 1 h after administration): 28.6^†† %
% Reversal [mean] ([3]; 1 h after administration, listed as ibuprofen): 28.6%
% Reversal [mean] ([3]; 3 h after administration): 41.5^†† %
% Reversal [mean] ([3]; 3 h after administration, listed as ibuprofen): 41.5%
% Reversal [mean] ([3]; 5 h after administration): 39.2^†† %
% Reversal [mean] ([3]; 5 h after administration, listed as ibuprofen): 39.2%
% Reversal [mean] ([3]; 7 h after administration): 32.5^†† %
% Reversal [mean] ([3]; 7 h after administration, listed as ibuprofen): 32.5%

solubility [2, 4]: 10.3 µM (≈ 4.15 µg/mL)
solubility [2, 5]: 1.9 µM (≈ 0.766 µg/mL)
Structure (SMILES): O=C(Nc1ccc(C(F)(F)F)c(F)c1)N1CCC(F)(c2ncccc2F)CC1 [Compound 212]

ΔTb, body temperature increase [1]: 0.9 °C
Structure (SMILES): C[C@@H]1CN(c2ncc([C@H](O)CO)cc2Cl)CCN1C(=O)Nc1nc2ccccc2s1 [DA]

solubility [2, 4]: 2.0 µM (≈ 0.932 µg/mL)
solubility [2, 5]: 0.4 µM (≈ 0.186 µg/mL)
Structure (SMILES): O=C(Nc1ccc(S(=O)(=O)C(F)(F)F)cc1)N1CCC(F)(c2ncccc2Cl)CC1 [Compound 210]

ΔTb, body temperature increase [1]: 0.9 °C
Structure (SMILES): O=C(Nc1nc2ccc(F)cc2s1)N1CCN(c2ncc([C@H](O)CO)cc2C(F)(F)F)CC1 [DH]

ΔTb, body temperature increase [1]: 0.8 °C
Structure (SMILES): Cc1cc([C@H](O)CO)cnc1N1CCN(C(=O)Nc2nc3ccc(Cl)cc3s2)CC1 [DN]

ΔTb, body temperature increase [1]: 0.6 °C
Structure (SMILES): C[C@H]1CN(C(=O)Nc2nc3ccc(F)cc3s2)CCN1c1ncc([C@H](O)CO)cc1F [AD]

solubility [2, 4]: > 50 µM
solubility [2, 5]: 1.8 µM (≈ 0.716 µg/mL)
Structure (SMILES): O=C(Nc1ccc(OC(F)(F)F)cc1)N1CC=C(c2ncccc2Cl)CC1 [Compound 214]

ΔTb, body temperature increase [1]: 1.0 °C
Structure (SMILES): C[C@@H]1CN(c2ncc([C@H](O)CO)cc2F)CCN1C(=O)Nc1nc2ccc(F)cc2s1 [DG]

ΔTb, body temperature increase [1]: 0.9 °C
Structure (SMILES): C[C@H](O)[C@@H](O)c1cnc(N2CCN(C(=O)Nc3nc4ccc(F)cc4s3)[C@H](C)C2)c(Cl)c1 [BA]

solubility [2, 4]: 1.3 µM (≈ 0.543 µg/mL)
solubility [2, 5]: 0.4 µM (≈ 0.167 µg/mL)
Structure (SMILES): O=C(Nc1ccc(OC(F)(F)F)cc1)N1CCC(F)(c2ncccc2Cl)CC1 [Compound 211]

solubility [2, 4]: 9.6 µM (≈ 3.84 µg/mL)
solubility [2, 5]: 0.6 µM (≈ 0.24 µg/mL)
Structure (SMILES): O=C(Nc1ccc(C(F)(F)F)c(Cl)c1)N1CC=C(c2ncccc2F)CC1 [Compound 215]
